# Data as given in publication PMC12467382, “Synthesis and Bioevaluation of Chalcones as Broad-Spectrum Antiviral Compounds Against Single-Stranded RNA Viruses” (Biomolecules, 2025).
# Several values for one entry are separate records, joined by “and”; a condition that tells them apart may be missing. Equal values may be shown once.
# Experiments:
# [1] = system: Hs27 cells; assay: 48 h MTS growth inhibition assay in Hs27 cells; type: cell-based, human; settings: for EC50: Homo sapiens, HS27, 48 h, read-out: Hs27 48 h EC50; for Hs27 48 h EC10: highest concentration giving 90% relative new cell growth after 48 h, 0.5% DMSO
# Description: A cell growth assay using the MTS reagent was conducted to assess the general toxicity of each chalcone compound. […] Experiments were conducted in triplicate. In a typical experiment, there are two plates. The first is the control plate, which allows one to assess the starting cell population on the day of drug addition (Day 0). The second plate is the test plate where cells are plated and tested with different drug concentrations on Day 0. For example, either CHO cells or Hs27 cells were plated in a 200 µL volume at 1000 cells/well on both the control and test plates and incubated overnight to allow the cells to adhere. On Day 0, 1 μL of PBS was added to the control plate wells so that their total volume was 201 μL. MTS reagent (Promega Cell Titer 96 Aqueous non-radioactive cell proliferation reagent, Promega, Madison, WI, USA) was added (20 μL) to each well on the control plate, and that plate was incubated for 4 h in a 5% CO2 atmosphere at 37 °C and then read on the plate reader.
# On Day 0, 1 μL of a 200× stock solution of each chalcone was added to the respected well on the test plate, and each condition was tested in triplicate. Drug solutions were prepared in advance in 100% DMSO and dosed so that the final DMSO concentration was 0.5%. For example, 1 μL of chalcone solution was added to the cells plated in each well in 200 μL of media. Of note, the respective chalcone addition occurred after an initial overnight incubation of each cell line in each well to reach Day 0 (the drugging day). After the chalcone was added, the cells were incubated in 5% CO2 for 48 h at 37 °C. After 48 h, the MTS reagent (Promega, Madison, WI, USA) was added (20 μL), and the test plates were incubated for an additional 4 h, and then, absorbance at 490 nm was measured on a BioTek Synergy MX plate reader. […] IC50 values were determined from the corresponding plot of relative absorbance at 490 nm vs. the drug concentration.
# For highly colored materials like the chalcones, it is important to consider the contribution of the compound’s own absorbance to the MTS assay. To correct for the absorbance contribution of the chalcone itself, we measured each chalcone’s absorbance (Chalcone Abs) at 490 nm at the respective concentration (e.g., 10 µM) and subtracted the absorbance of the media background (blank Abs). This net value was then subtracted out of the Day 2 absorbance value to provide the % relative growth via the following equation:(1) % Relative Growth = (Day 2 Abs−Day 2 blank Abs)−Chalcone Abs−blank Abs−(Day 0 Abs−Day 0 blank Abs)/(Day 2 Control Abs −Day 2 blank Abs)−(Day 0 Abs−Day 0 blank Abs) ×100%
# With the chalcones in hand, we then evaluated their growth-inhibition properties in Chinese hamster ovary (CHO-K1) cells and human Hs27 fibroblast cells.
# [2] = system: Hs27 cells; assay: Propidium iodide (PI) staining cytotoxicity in Hs27 cells by flow cytometry; type: cell-based; settings: for PI MTC: 24 h, concentration giving 10% PI+ cells, Hs27 cells, standard curve; for PI+ cells: 10 µM, 24 h post-treatment, untreated control subtracted
# Description: Chalcone treatments were performed in DMEM supplemented with 10% HI FBS at the indicated concentrations and for indicated periods of time. Chalcone stocks were reconstituted in 100% dimethyl sulfoxide (DMSO) at a concentration of 10 mM and were serially diluted to working concentrations in DMSO. DMSO control treatments to test the effect of the vehicle were performed at volumes corresponding to the volume of chalcone added during each experiment (i.e., 1 µL chalcone DMSO solution/1 mL DMEM [10 µM] utilized alongside the DMSO control of 1 µL/1 mL DMEM). For cytotoxicity assays, untreated controls were subtracted from DMSO and chalcone sample values to account for the background signal.
# For cytotoxicity assays, cells were stained with propidium iodide (PI) at a dilution of 1:100. Cell viability was determined via flow cytometry using the CytoFLEX (Beckman Coulter, Brea, CA, USA). CytExpert software (Beckman Coulter, version 2.4) was used to analyze independent events. PIV5 infection was monitored using flow cytometry via the FITC channel by analyzing GFP expression of individual cells. ZIKV infection was monitored utilizing Flavivirus group antigen–antibody (D1-4G2-4-15; Novus Biologicals, Littleton, CO, USA) staining for the ZIKV envelope protein. Cells were fixed and permeabilized using eBioscience Intracellular Fixation and Permeabilization Buffer (Invitrogen, Thermo Fisher Scientific, MA, USA) according to the manufacturer’s instructions. Secondary staining was performed using an anti-Alexa Fluor 488 (AF488) antibody (Invitrogen, Thermo Fisher Scientific, MA, USA). OC43 infection was monitored utilizing a primary antibody targeted toward the OC43 nucleocapsid protein (NP, MAB9013, Sigma-Aldrich, St. Louis, MO, USA). Secondary staining was performed using an AF488 antibody. Cells were fixed and permeabilized as previously described. LACV infection was monitored utilizing an anti-LACV Gc 807.31ab antibody kindly provided by Andrew Pekosv. Secondary staining was performed using an AF488 antibody. Cells were fixed and permeabilized as previously described.
# To determine the actual cytotoxic effects of select chalcones in the series, human fibroblast Hs27 cells were treated with DMSO as a control or treated with each selected chalcone at a concentration of 10 µM. At 24 h post-treatment (hpt), the Hs27 cells were stained with propidium iodide (PI), a stain for cells with permeable plasma membranes, and then processed for flow cytometry (see Figure 4). […] These cytotoxicity findings reflected the relative growth-inhibition properties of 8f, 8l, 8o, 8p, 8s, 8w, 8x, and 8z observed in Table 2 (see Hs27 cell data).
# The GFP IC50 was defined as the concentration of chalcone required to inhibit the GFP expression (as measured via flow cytometry) by 50% when compared to DMSO-treated cells. […] To determine these PI MTCs, Hs27 cells were treated with each chalcone at various concentrations for 24 h and then analyzed via flow cytometry for positive PI staining. Untreated controls were subtracted to account for background staining. […] Immediately following infection, media were replaced with chalcone-supplemented media at specified concentrations. GFP expression was analyzed via flow cytometry at 24 hpi.
SMILES,EC50 [1],Hs27 48 h EC10 [1],PI MTC [2],PI+ cells [2]
COc1ccccc1/C=C/C(=O)c1ccccc1O [Chalcone 8a],20.3 ± 2.1 µM,0.6 ± 0.04 µM,>15 µM,–
COc1ccc(Br)cc1/C=C/C(=O)c1c(O)cccc1OC [Chalcone 8f],2.3 ± 0.2 µM,1.4 ± 0.1 µM,4.9 µM,52.60% and 40–60%
COc1ccc(Br)cc1/C=C/C(=O)c1c(O)cccc1OCc1ccccc1 [Chalcone 8l],7.8 ± 0.6 µM,6.1 ± 0.5 µM,7.0 µM,40–60% and 57.7%
CCOc1ccc(Br)cc1/C=C/C(=O)c1c(O)cccc1OCc1ccccc1 [Chalcone 8o],13.3 ± 1.1 µM,8.3 ± 0.5 µM,10.5 µM,< 10% and 8.5%
CCOc1ccc(Cl)cc1/C=C/C(=O)c1c(O)cccc1OCc1ccccc1 [Chalcone 8p],19.3 ± 1.9 µM,8.7 ± 0.7 µM,8.4 µM,< 10%
"COc1ccc(Br)cc1/C=C/C(=O)c1c(O)cccc1OCCC(C)C [Chalcone 8s, (2E)-3-(5-Bromo-2-Methoxy-Phenyl)-1-[2-Hydroxy-6-(3-Methyl-Butoxy)-Phenyl]-Propenone]",13.9 ± 0.5 µM,6.9 ± 0.6 µM,3.5 µM,40–60%
"CCOc1ccc(Br)cc1/C=C/C(=O)c1c(O)cccc1OCc1ccc(-c2ccccc2)cc1 [Chalcone 8v, (2E)-1-[2-(Biphenyl-4-Ylmethoxy)-6-Hydroxy-Phenyl]3-(5-Bromo-2-Ethoxy-Phenyl)-Propenone]",18.4 ± 0.9 µM,3.4 ± 0.2 µM,–,–
"COc1ccc(Br)cc1/C=C/C(=O)c1c(O)cccc1OCc1ccc(-c2ccccc2)cc1 [Chalcone 8w, (2E)-1-[2-(Biphenyl-4-Ylmethoxy)-6-Hydroxy-Phenyl]3-(5-Bromo-2-Methoxy-Phenyl)-Propenone]",8.2 ± 0.5 µM,6.5 ± 0.5 µM,4.5 µM,~ 11%
"COc1ccc(O)cc1/C=C/C(=O)c1c(O)cccc1OCc1ccccc1 [Chalcone 8x, (2E)-1-(2-Benzloxy-6-Hydroxy-Phenyl)-5-(5-Hydroxy-2-Methoxy-Phenyl)-Propenone]",3.4 ± 0.3 µM,1.1 ± 0.07 µM,–,40–60%
"COc1cc(/C=C/C(=O)c2c(O)cccc2OCc2ccccc2)cc(OC)c1OC [Chalcone 8z, (2E)-1-(2-Benzloxy-6-Hydroxy-Phenyl)-3-(3,4,5-Trimethoxy-Phenyl)-Propenone]",5 ± 0.2 µM,4.0 ± 0.2 µM,2.4 µM,40–60%
